# Results: patent US4352885A, “Preparation of a novel NADP linked alcohol-aldehyde/ketone oxidoreductase from thermophilic anaerobic bacteria for analytical and commercial use” (Wisconsin Alumni Research Foundation, priority 1980, dated 1982)
# Experiments:
# [1] = target: T1, NADP linked alcohol dehydrogenase (alcohol-aldehyde/ketone oxidoreductase) (Thermoanaerobacter brockii, UniProt P14941); test: Specific activity of partially purified NADP linked alcohol dehydrogenase with alcohols and carbonyl compounds (absorbance at 334 nm); assay type: biochemical, Thermoanaerobium brockii; conditions: saturating substrate (0.2-0.5 M alcohol or ketone, 10 mM acetaldehyde); 0.5 mM NADP or 0.2 mM NADPH; 0.1 M Tris-Cl pH 7.8
# T1 construct: of the T. brockii enzyme preparation with various alcohols and carbonyl compounds; made in house; host or cells: T. brockii itself (native host; partially purified enzyme)
# T1 sequence (P14941 1-352): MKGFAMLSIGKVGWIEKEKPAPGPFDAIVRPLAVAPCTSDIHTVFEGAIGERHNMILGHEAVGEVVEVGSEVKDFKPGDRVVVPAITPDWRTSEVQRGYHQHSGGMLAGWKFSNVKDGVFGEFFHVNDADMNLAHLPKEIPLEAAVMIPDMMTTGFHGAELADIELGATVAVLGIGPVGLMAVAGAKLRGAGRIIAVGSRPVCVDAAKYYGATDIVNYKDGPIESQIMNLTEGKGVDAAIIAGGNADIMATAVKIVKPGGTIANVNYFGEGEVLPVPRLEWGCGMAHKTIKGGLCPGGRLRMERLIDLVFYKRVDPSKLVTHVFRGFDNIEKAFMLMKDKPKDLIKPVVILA
# [2] = target: T2, heat treated T. brockii extract (Thermoanaerobacter brockii, UniProt P14941); test: Reduction of 2-pentanone by heat treated extract with NADPH regenerating system (gas chromatographic analysis); assay type: biochemical, Thermoanaerobium brockii; conditions: 3 g in 150 ml; 0.2 v/v isopropanol, 0.3 mM NADP; 40 hr. at 37° C.
# T2 construct: made in house; host or cells: T. brockii itself (native host; heat treated crude extract)
# T2 sequence (P14941 1-352): T1 sequence (P14941 1-352)
# Procedure: As illustrated in the following reaction diagram, an NADPH regenerating system can be initiated with isopropanol as the electron donor for the reduction of 2-pentanone. [drawing 1] A 150 ml solution was prepared containing 50 mM Tris-HCl (pH 7.8), 0.2 v/v isopropanol, 2 mM dithiothreitol, 0.3 mM NADP and 3 g 2-pentanone. After the solution was degassed with N2, sufficient heat treated T. brockii extract was added to yield an activity of 1 U/min./ml. The solution was incubated in a stoppered vessel for 40 hr. at 37° C. Gas chromatographic analysis indicated a 90% conversion of 2-pentanone to the corresponding alcohol. The mixture was extracted with diethyl ether and then fractionally distilled. The fractions were analyzed by conventional gas chromatographic and NMR (nuclear magnetic resonance) methods. The pure 2-pentanol fraction yielded a dextrorotatory optical rotation which corresponded to that of a highly optically enriched compound. The result in optical purity was dependent on incubation temperature and initial rate of isopropanol to 2-pentanone. Decreasing the temperature from 37° C. to 25° C. and the 2-pentanone concentration from 3 grams/150 ml to 0.6 grams/150 ml, increases the d/l bar ratio from 6/l to 9/l for the resulting 2-pentanol.
smiles,measurement,setting,value
"CCCC(C)=O [CH3 COCH2 CH2 CH3, 2-pentanone]",Activity V/mg. at 60° C.,[1],4.2 μ Mole/Min./Mg Protein
same,Conversion to the corresponding alcohol,[2],90%
